Read-outs that look alike come from different tables or passages of the source.
Columns and labels:
[1] = cited from earlier work
[2] = system: CD4 and CD8 T cells from human peripheral blood; test: T cell activation in PBMC, flow cytometry with TriMAP/FlowSOM; type: cell-based; conditions: 10^-7 M, 24 h, anti-CD3 and anti-CD28, compared to ethanol treated cells
Description: Human peripheral blood mononuclear cells (PBMC) from two healthy individuals were obtained from a pre-existing respository. Their use was approved by the University of Alabama at Birmingham Institutional Review Board (Human Subject Assurance Number FWA00005960) as an exempt protocol #4 (Dr C. Raman, P.I.). […] Informed consent is waived in accord with 45CFR46.116 (d). In 48 well plates, 0.5×10^6 PBMC/well were cultured in RPMI1640 containing, 5% charcoal adsorbed FBS and antibiotics and T cells were activated using […] anti-CD3 (clone 145-2C11) and 1 μg/ml anti-CD28 (clone 37.51) for 24 h (Janjetovic Z, et. al., (2021) Endocrinology 162(1), Chaiprasongsuk A, et. al., (2020) Free Radic Biol Med 155 87-98, Slominski A T, et. al., (2011) Am J Physiol Cell Physiol 300(3) C526-41, McGuire D J, et. al., (2014) Eur J Immunol 44(4) 1137-42, Sestero C M, et. al., (2012) J Immunol 189(6) 2918-30). The culture was treated with 10^-7 M 20S(OH)D3, 20S,25(OH)2D3, 20S,23S(OH)2D3, 20S,23R(OH)2D3 or 1α,25(OH)2D3 (Sigma-Aldrich, St. Louis, MO, USA) dissolved in ethanol and diluted in culture medium at the same time of addition of anti-CD3 and anti-CD28. The vehicle control comprised of 0.1% ethanol. At the end of assay the cells were stained with antibodies to CD4 (clone RPA-T4, BV-421), CD19 (clone HB19, BV-510), CD14 (clone HCD14, Alexa 700), CD137 (clone 4B4-1, BV605), CD8a (clone RPA-T8, FITC), ICOS (clone C398.4A, PE/Dazzle), PD1 (clone NAT105, PE), CD80 (clone 2D10, PerCP/Cy5.5), OX40 (clone ACT35, PE/Cy7), CD69 (clone FN50, APC), HLA-DR (clone L243, APC/Fire 750). All antibodies were from Biolegend except anti-CD8 was from Thermo Fisher. The stained cells were analyzed using a CytoFLEX (Beckman Coulter) flow cytometer.
For unbiased analysis of the multidimensional data, acomputational algorithm-based approaches was utilized (Quintelier K, et. al., (2021) Nature Protocols 16(8) 3775-3801). The flow cytometry standard (FCS) data files from each individual and treatment (two individuals, six treatments including ethanol, a total of 12 data files) were processed through the following workflow—compensation, gating on live cells, gating for single cells and subtraction of CD19+(B cells) and CD14+(monocytes). B cells and monocytes were removed from the analysis because only T cells (CD4+ and CD8+) are activated by anti-CD3 and anti-CD28. After these initial gating steps, a key word was added to each of the 12 FCS files, down sampled to 50,000 events/sample and concatenated. Down sampling ascertains that each sample is equally weighted, and concatenation ascertains that statistical analysis is applied equally. The concatenated files were first subjected to TriMAP analysis, a computational algorithm that clusters populations based on triplet relatedness followed by FlowSOM algorithm-based clustering (Quintelier K, et. al., (2021) Nature Protocols 16(8) 3775-3801). To perform these analyses, plugins within FlowJo (BD, CA, USA) were used.
T cells in peripheral blood from two healthy individuals were activated with anti-CD3 and anti-CD28 in the absence (ethanol) or presence of 10^−7 M of each of the vitamin D3 secosteroids for 24 h. The cells were stained for lineage markers (CD4, CD8, CD19, CD14) and a panel of activation induced markers (CD69, ICOS, OX40, CD137, PD1, HLADR) and expression data were collected using a flow cytometer. The gating strategy was live, single cell followed by CD4 and CD8 T cell populations. […]

Compound: 25(OH)D3 [reference compound]
- calcemic activity / toxicity ([1]; literature, at the same doses): highly toxic

Compound: C=C1/C(=C\C=C2/CCC[C@]3(C)[C@@H]([C@H](C)CCCC(C)(C)O)CC[C@@H]23)C[C@@H](O)C[C@@H]1O [1α,25(OH)2D3, reference compound]
- CD4 T cells of population 4 (down modulated CD4, increased CD69 and ICOS) [2]: fewer cells
- calcemic activity / toxicity ([1]; in vivo): highly toxic

Compound: C=C1CC[C@H](O)C/C1=C/C=C1\CCC[C@@]2(C)[C@H]1CC[C@@H]2[C@@](C)(O)CC(O)CC(C)C (stereo partly shown) [20S,23(OH)2D3, 20,23-dihydroxyvitamin D3]
- CD4 T cells of population 4 (down modulated CD4, increased CD69 and ICOS) [2]: no effect on this population

From patent US20240327320A1, “NOVEL ROUTES OF CHEMICAL SYNTHESIS OF 20S(OH)D3, 20S,25(OH)2D3, 20S,23S(OH)2D3, AND 20S,23R(OH)2D3 AND THEIR MODIFICATION OF THE IMMUNE ACTIVITY OF PBMCS” (United State Government as represen ted by the Department …, priority 2023, published 2024)
